{"source": "patent US20200289434A1", "about": "“RAPIDLY IMPROVING ENDOTHELIAL FUNCTION, REDUCING ARTERIAL STIFFNESS AND REVERSING CALCIFICATION OF BLOOD VESSELS BY ADMINISTERING VITAMIN K” (KAYDENCE PHARMA AS, priority 2019, published 2020)", "test_system": "ApoE/LDLR−/− mice", "test": "Example 2: nitrite and nitrate concentration in plasma (ENO-20)", "assay_type": "in vivo", "conditions": "two months", "procedure": "Nitrite (NO2−) and nitrate (NO3−) concentration in plasma—HPLC-based ENO-20\nBlood samples were collected from heart into test tubes containing additional anticoagulant and centrifuged at 1000 g for 10 min at 4° C. The samples were used for HPLC measurement of nitrate (NO3^−) and nitrite (NO2^−) concentrations in plasma by an ENO-20 NOx Analyzer."}
{"compound": "CC(C)=CCC/C(C)=C/CC/C(C)=C/CC/C(C)=C/CC/C(C)=C/CC/C(C)=C/CC/C(C)=C/CC1=C(C)C(=O)c2ccccc2C1=O", "note": "[MK-7, menaquinone-7]", "values": [{"measurement": "concentration of NO3− in plasma", "setting": "0.03 or 10 mg/kg b.w./day", "result": "did not change significantly"}, {"measurement": "increase in NO2− concentration in plasma", "setting": "high dose 10 mg/kg b.w./day", "result": "~42", "unit": "%"}, {"measurement": "increase in NO2− concentration in plasma", "setting": "low dose 0.03 mg/kg b.w./day", "result": "about 58%"}]}
